Results published in patent US20250352512A2, “C4-S[…] DERIVATIVES AND METHODS OF USING” (priority 2022, published 2025).
Read-outs that look alike come from different tables or passages of the source.

Assays:
[1] = biological target: HTR1B (5-HTR1B) (Homo sapiens, UniProt P28222); assay: cell-based
[2] = biological target: T1, CHRM2 (Homo sapiens, UniProt P08172); assay: cell-based
T1 sequence (P08172 1-466): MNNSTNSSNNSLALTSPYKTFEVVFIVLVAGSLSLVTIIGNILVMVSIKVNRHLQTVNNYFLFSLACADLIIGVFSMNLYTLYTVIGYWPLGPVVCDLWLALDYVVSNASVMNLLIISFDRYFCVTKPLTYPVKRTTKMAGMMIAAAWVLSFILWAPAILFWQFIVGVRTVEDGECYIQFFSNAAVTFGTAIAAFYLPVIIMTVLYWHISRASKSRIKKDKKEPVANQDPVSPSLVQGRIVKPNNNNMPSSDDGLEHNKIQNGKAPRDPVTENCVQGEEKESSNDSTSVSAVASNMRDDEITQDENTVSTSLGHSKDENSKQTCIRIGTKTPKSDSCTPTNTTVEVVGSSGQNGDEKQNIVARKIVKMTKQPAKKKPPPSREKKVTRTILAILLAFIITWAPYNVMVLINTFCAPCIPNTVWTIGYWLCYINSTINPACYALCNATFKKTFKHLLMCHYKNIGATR

[3] = biological target: AVPR1A (Homo sapiens, UniProt P37288); assay: cell-based
Chain of AVPR1A (P37288 whole entry): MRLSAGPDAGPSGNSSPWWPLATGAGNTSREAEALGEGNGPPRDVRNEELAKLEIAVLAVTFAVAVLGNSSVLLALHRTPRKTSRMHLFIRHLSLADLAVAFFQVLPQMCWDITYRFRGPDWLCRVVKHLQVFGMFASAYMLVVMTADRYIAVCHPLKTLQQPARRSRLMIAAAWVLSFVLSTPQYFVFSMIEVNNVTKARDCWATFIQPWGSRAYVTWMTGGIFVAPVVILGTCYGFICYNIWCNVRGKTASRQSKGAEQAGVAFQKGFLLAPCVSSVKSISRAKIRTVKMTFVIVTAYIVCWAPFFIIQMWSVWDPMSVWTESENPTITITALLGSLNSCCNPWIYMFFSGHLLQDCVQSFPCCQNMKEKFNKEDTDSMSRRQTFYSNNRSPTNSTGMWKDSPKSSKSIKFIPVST

[4] = biological target: CNR1 (Homo sapiens, UniProt P21554); assay: cell-based
Chain of CNR1 (P21554 whole entry): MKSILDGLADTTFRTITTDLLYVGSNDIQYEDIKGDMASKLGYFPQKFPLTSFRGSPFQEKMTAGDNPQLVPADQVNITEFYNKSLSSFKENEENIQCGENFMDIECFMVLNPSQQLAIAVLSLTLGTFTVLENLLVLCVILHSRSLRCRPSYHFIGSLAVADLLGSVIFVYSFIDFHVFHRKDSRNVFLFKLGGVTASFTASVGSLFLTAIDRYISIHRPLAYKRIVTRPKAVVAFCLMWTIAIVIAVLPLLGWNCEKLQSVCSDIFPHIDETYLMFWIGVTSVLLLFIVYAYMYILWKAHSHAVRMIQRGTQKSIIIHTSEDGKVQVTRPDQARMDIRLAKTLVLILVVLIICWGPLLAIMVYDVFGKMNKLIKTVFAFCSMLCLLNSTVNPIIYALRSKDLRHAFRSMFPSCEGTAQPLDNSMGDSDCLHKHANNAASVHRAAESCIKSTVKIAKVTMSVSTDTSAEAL

[5] = biological target: DAT (Homo sapiens, UniProt Q01959); assay: cell-based
Chain of DAT (Q01959 whole entry): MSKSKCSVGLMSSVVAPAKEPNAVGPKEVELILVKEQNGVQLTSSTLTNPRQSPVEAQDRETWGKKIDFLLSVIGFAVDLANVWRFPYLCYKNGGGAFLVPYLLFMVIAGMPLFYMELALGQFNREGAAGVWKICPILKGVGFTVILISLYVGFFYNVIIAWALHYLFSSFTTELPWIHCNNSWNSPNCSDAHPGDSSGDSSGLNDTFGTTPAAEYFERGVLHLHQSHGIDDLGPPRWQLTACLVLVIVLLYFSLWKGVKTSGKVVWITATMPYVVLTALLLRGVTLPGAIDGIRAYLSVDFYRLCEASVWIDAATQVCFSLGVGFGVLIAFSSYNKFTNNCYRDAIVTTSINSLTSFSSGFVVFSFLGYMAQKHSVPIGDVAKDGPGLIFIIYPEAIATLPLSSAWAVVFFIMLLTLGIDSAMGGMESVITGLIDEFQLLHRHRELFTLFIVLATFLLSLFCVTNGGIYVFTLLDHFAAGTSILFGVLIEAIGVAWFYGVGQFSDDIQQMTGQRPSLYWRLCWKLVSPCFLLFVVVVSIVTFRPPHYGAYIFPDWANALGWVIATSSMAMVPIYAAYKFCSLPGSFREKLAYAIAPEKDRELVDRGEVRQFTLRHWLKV

[6] = biological target: T1, CHRM2; assay: cell-based; remark: listed apart in the source
[7] = biological target: T2, HTR3A (5-HT3A) (Homo sapiens, UniProt P46098); assay: cell-based
T2 sequence (P46098 24-478): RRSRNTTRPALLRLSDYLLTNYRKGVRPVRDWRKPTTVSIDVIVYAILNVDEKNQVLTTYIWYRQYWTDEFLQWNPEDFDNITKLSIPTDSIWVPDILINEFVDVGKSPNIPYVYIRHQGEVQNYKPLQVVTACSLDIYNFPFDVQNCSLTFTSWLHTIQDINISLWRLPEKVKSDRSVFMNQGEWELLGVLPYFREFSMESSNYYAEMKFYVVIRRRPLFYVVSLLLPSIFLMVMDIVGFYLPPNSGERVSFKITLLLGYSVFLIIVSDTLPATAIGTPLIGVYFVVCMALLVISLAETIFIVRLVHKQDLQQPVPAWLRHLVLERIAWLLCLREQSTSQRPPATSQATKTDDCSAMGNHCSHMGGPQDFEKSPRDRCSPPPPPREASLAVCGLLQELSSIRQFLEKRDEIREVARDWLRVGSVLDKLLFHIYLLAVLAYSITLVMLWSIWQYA

[8] = biological target: T3, OPRD1 (Homo sapiens, UniProt P41143); assay: cell-based
T3 sequence (P41143 whole entry): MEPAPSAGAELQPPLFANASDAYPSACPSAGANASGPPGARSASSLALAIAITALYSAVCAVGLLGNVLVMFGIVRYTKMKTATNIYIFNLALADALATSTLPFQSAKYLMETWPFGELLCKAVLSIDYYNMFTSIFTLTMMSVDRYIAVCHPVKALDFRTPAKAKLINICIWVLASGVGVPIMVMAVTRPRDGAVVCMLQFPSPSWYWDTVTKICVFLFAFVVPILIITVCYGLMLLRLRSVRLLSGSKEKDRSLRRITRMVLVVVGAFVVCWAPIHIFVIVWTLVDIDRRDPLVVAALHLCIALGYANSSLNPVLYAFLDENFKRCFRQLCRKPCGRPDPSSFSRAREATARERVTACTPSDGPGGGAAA

[9] = biological target: T4, ADRA2A (Homo sapiens, UniProt P08913); assay: cell-based
T4 sequence (P08913 1-465): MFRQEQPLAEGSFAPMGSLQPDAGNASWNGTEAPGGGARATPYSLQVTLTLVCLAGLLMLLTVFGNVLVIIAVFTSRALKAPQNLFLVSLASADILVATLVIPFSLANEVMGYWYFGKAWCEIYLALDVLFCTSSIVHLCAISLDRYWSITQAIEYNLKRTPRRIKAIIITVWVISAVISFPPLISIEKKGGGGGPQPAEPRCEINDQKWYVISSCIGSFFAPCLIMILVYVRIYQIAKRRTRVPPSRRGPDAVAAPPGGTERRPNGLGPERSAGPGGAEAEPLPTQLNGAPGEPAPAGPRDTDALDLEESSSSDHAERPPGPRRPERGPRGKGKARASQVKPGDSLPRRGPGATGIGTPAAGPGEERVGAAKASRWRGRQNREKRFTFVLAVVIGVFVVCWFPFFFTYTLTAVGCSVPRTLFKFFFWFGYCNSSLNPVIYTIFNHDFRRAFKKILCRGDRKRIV

[10] = biological target: T4, ADRA2A; assay: cell-based; remark: listed apart in the source
[11] = biological target: T3, OPRD1; assay: cell-based; remark: listed apart in the source
[12] = biological target: T5, 5-HT1A receptor (Homo sapiens, UniProt P08908); assay type: cell-based; settings: comparison of +5-HT1A with -5-HT1A cultures, 4 mM forskolin
T5 construct: host or cells: CHO-K1
T5 sequence (P08908 1-422): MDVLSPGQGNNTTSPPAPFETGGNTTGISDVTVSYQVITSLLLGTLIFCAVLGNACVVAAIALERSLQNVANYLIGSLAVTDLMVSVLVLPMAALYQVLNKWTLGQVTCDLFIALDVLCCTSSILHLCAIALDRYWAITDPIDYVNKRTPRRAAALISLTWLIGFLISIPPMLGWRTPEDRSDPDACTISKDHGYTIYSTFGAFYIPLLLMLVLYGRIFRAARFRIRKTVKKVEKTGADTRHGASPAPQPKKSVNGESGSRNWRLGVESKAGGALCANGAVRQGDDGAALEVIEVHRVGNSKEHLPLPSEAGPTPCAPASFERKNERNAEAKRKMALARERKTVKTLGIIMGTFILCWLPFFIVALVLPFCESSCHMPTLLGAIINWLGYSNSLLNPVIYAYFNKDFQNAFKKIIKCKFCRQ

[13] = HTR1B, GPCR, AGN (agonist), read-out: EC50
[14] = CHRM2, GPCR, ANT (antagonist), read-out: IC50
[15] = AVPR1A, GPCR, ANT (antagonist), read-out: IC50
[16] = CNR1, GPCR, AGN (agonist), read-out: EC50
[17] = DAT, transporter, BL (blocker), read-out: IC50
[18] = CHRM2, GPCR, AGN (agonist), read-out: EC50
[19] = HTR3A, ion channel, BL (blocker), read-out: IC50
[20] = OPRD1, GPCR, AGN (agonist), read-out: EC50
[21] = ADRA2A, GPCR, AGN (agonist), read-out: EC50
[22] = ADRA2A, GPCR, ANT (antagonist), read-out: IC50
[23] = OPRD1, GPCR, ANT (antagonist), read-out: IC50

Chain of HTR1B (5-HTR1B) (P28222 whole entry): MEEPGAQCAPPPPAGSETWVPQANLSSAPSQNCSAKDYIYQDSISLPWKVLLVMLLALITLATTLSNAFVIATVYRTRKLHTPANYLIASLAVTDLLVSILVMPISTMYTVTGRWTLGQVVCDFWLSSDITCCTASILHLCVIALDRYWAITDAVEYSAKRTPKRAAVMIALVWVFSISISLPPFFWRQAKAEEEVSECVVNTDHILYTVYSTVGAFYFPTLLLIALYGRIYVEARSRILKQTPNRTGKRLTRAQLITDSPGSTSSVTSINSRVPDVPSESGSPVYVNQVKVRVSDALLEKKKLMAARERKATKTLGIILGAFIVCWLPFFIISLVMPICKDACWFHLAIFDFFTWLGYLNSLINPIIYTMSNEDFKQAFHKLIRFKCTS

Row | Compound | EC50 [1, 13] [nM] | IC50 [2, 14] [µM] | IC50 [3, 15] [µM] | EC50 [4, 16] [µM] | IC50 [5, 17] [µM] | EC50 [6, 18] [µM] | IC50 [7, 19] [nM] | EC50 [8, 20] [µM] | EC50 [9, 21] [µM] | IC50 [10, 22] [µM] | IC50 [11, 23] [µM] | 5-HT1A receptor modulation [12] | EC50 [8] [µM] | further results
1 | CCCC(=O)OCOc1cccc2[nH]cc(CCN(C)C)c12 [D(IV)] | 638 | > 100 | > 100 | > 100 | > 100 | > 100 | > 100000 | 53.2 | > 100 | > 100 | > 100 |  |  | 
2 | CN(C)Cc1c[nH]c2cccc(O[Si](C)(C)C(C)(C)C)c12 [A(IV)] | 503 | > 100 | 42.3 | > 100 | 25.4 | > 100 | 830 | 29.1 | > 100 | 16 | > 100 | reveals receptor modulation |  | 
3 | CN(C)CCc1c[nH]c2cccc(OC(=O)OCc3ccccc3)c12 [B(II)] |  |  |  |  |  |  |  |  |  |  |  | suggests no receptor modulation | > 100 | EC50 [1]: 446 nM; IC50 [2]: > 100 µM; IC50 [3]: 42.6 µM; EC50 [4]: > 100 µM; IC50 [5]: 4.69 µM; EC50 [6]: > 100 µM; IC50 [7]: 2340 nM; EC50 [9]: > 100 µM; IC50 [10]: 9.08 µM; IC50 [11]: > 100 µM
4 | CN(C)CCc1c[nH]c2cccc(OC(=O)OCC3CC3)c12 [B(III)] | 61.8 | > 100 | > 100 | > 100 | > 100 | > 100 | 47400 | > 100 | > 100 | > 100 | > 100 | indicates receptor modulation |  | 
5 | CC(C)[Si](Oc1cccc2[nH]cc(CN(C)C)c12)(C(C)C)C(C)C [A(V)] | 1190 | > 100 | 17 | > 100 | > 100 | > 100 | 1430 | 33.3 | > 100 | > 100 | > 100 | reveals receptor modulation |  | 
6 | CN(C)CCc1c[nH]c2cccc(OP(=O)(Oc3ccccc3)Oc3ccccc3)c12 [F(I)] |  |  |  |  |  |  |  |  |  |  |  | reveals receptor modulation | > 100 | EC50 [1]: 54.9 nM; IC50 [2]: 42.9 µM; IC50 [3]: > 100 µM; EC50 [4]: > 100 µM; IC50 [5]: > 100 µM; EC50 [6]: > 100 µM; IC50 [7]: 2520 nM; EC50 [9]: > 100 µM; IC50 [10]: 40.3 µM; IC50 [11]: 57.1 µM
7 | CCCCC(=O)OCOc1cccc2[nH]cc(CCN(C)C)c12 [D(III)] | 279 | > 100 | > 100 | > 100 | > 100 | > 100 | 32400 | > 100 | > 100 | > 100 | > 100 | suggests no receptor modulation |  | 
8 | CC(C)OC(=O)OCOc1cccc2c1c(CCN(C)C)cn2COC(=O)OC(C)C [D(XIII)] | 9320 | 66.5 | > 100 | > 100 | > 100 | > 100 | 16700 |  | > 100 | > 100 | > 100 | suggests receptor modulation at higher ligand concentrations | > 100 | 
